Measurements: patent US10239923B2, “Specific amyloid beta binding peptides and the use of same for treating and diagnosing alzheimer's dementia” (Forschungszentrum Juelich GmbH, priority 2015, dated 2019)
Square brackets hold non-standard residues; d marks the D form. Peptide text beside a SMILES is read from it.

What was measured:
[1] = tested on: Neuro-2a cells stably transfected with human APP695; test: Influence on APP-expressing cells; type: cell-based, murine; settings: incubation with 10 μM or 100 μM Mosd1
Protocol: FIG. 9: The murine neuroblastoma cell line Neuro-2a serves as a model for neuronal cells and is thus suitable for analyzing the symptoms of AD. […] In this way, the influence of naturally occurring Aβ1-42 species can be examined directly in neuronal cells. In the experiment, Neuro-2a cells were cultivated without APP parallel to those with the APP transfection. […] By incubation with 10 μM or 100 μM Mosd1, however, this pathological phenotype can be reversed, and the cells develop in accordance with the physiological phenotype corresponding to wild-type Neuro-2a cells. This means that the cell number increases and the cells accumulate, have a polygonal shape and form numerous cell contact points and spurs (middle and right-hand image).

[2] = biological target: T1, Aβ1-42 species of different size (Homo sapiens, UniProt P05067); test: Density gradient centrifugation, tris-tricine SDS gel and silver staining of Aβ1-42 species; type: biochemical
T1 sequence (P05067 672-713 limits assumed): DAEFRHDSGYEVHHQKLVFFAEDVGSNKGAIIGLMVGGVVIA
Protocol: The batch was then incubated either with or without addition of peptide for a further 40 minutes and was then placed on an iodixanol density gradient. The gradient was then centrifuged, wherein the contents of the sample (Aβ1-42 species of different size) diffused within the gradient in accordance with their size and shape. The gradient was fractionated after centrifugation into 15 fractions (1-15), and the first 14 individual fractions were applied to a tris-tricine SDS gel. The contents per fraction were separated electrophoretically. […] The batch was then incubated either without (A) or with addition of different concentrations of Mosd1 (B=10 μM Mossd1; C=20 μM Mosd1; D=40 μM Mosd1; E=80 μM Mosd1) for a further 40 minutes and was then placed on an iodixanol density gradient. The gradient was then centrifuged, wherein the contents of the sample (Aβ1-42 species of different size) diffused within the gradient in accordance with their size and shape. The gradient was fractionated after centrifugation (1-15), and the individual fractions were applied to a tris-tricine SDS gel. The contents per fraction were separated electrophoretically.

[3] = biological target: T1, Aβ1-42 species of different size; test: Quantification of density gradient fractions by RP-HPLC; type: biochemical
From the text: Certain further embodiments of the invention including a method will be presented hereinafter. What is known as the QIAD test (quantitative determination of interference with Aβ aggregate size distribution) can be used for the quantitative analysis of active substances. The method for quantitative analysis of the influence of an active substance on the particle size distribution of amyloid peptides and/or proteins in a sample has the following steps: A beta is first left to aggregate under controlled conditions, so that different A beta aggregates form. The conditions are selected so that a particularly large amount of small, particularly cytotoxic A beta oligomers are formed. […] This change is determined quantitatively. […] Due to the QIAD method, the increase or decrease of A beta aggregates of a specific particle size is measured. […] The concentration of A beta in the respective fractions is then determined by a complete denaturing of the A beta species during a reversed-phase (RP-)HPLC performed subsequently to the fractionation. […] Eluting A beta is detected by means of UV absorption at 215 nm. […] The mean value from a number of experiments carried out independently of one another (for example six) with the resultant standard deviation can be calculated for each fraction. […]
Samples of each fraction from the experiment shown in FIG. 5 were separated and quantified by means of reversed-phase HPLC. […]

[4] = 80 μM Aβ1-42 pre-incubated […], 40 μM peptide for 40 minutes

oligomeric Aβ1-42 species (fractions 4-7) [2, 4]: reduce | proportions of high-molecular Aβ1-42 species (fractions 10-14) [2, 4]: increase | signal strength in fractions 1-2 (monomeric Aβ) ([2]; concentrations higher than 20 μM Mosd1): reduction of the signal strength | concentration of high-molecular Aβ species (fractions 11-14) ([3]; 10-80 μM Mosd1, 80 μM Aβ1-42): rises
SMILES: CSCC[C@@H](NC(=O)[C@@H](Cc1c[nH]cn1)NC(=O)[C@@H](Cc1ccc(O)cc1)NC(=O)[C@@H](CO)NC(=O)[C@H](NC(=O)[C@@H](CC(C)C)NC(=O)[C@@H](Cc1ccc(O)cc1)NC(=O)[C@@H](CO)NC(=O)[C@H](N)Cc1ccc(O)cc1)[C@H](C)O)C(=O)N[C@@H](C(=O)N[C@H](Cc1c[nH]c2ccccc12)C(=O)N[C@H](CCCNC(=N)N)C(N)=O)C(C)C [Mosd1] (H-[dY][dS][dY][dL][dT][dS][dY][dH][dM][dV][dW][dR]-NH2)
pathological phenotype of APP-expressing cells [1]: reversed | proportion of small Aβ1-42 species and toxic oligomers ([2]; higher concentrations, 40 μM and 80 μM Mosd1, 80 μM Aβ1-42): reduce the proportion of small Aβ1-42 species and toxic oligomers considerably | proportion of toxic oligomers (fractions 4-7) ([2]; lower concentrations, 10 μM and 20 μM Mosd1, 80 μM Aβ1-42): reduce the proportion of toxic oligomers | concentrations of Aβ in the fractions which contained the toxic oligomers ([3]; 10-80 μM Mosd1, 80 μM Aβ1-42, 3 independent experiments): decrease with increasing concentration of Mosd1
